Patent US10167257B2, “Indole derivatives for use in medicine” (IOmet Pharma Ltd., priority 2014, dated 2019)

What was measured:
[1] = target: T1, TDO (A172 cells) (Homo sapiens, UniProt P48775); test: TDO cell-based assay (A172), kynurenine production; settings: A172 human glioblastoma cells, 500 μM L-Trp, 48 h, kynurenine by absorbance at 490 nm
T1 construct: This assay utilised cancer cells which expressed either TDO or IDO; host or cells: A172 human glioblastoma cells
Procedure, shortened: (§1)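 Kynurenine output was read at 490 nm after 5 min with 1% Ehrlich's reagent, using supernatants from 48 h, 37 °C cultures containing 500 μM L-Trp and test compound. TDO activity came from A172 cells. IDO activity came from SKOV-3 cells, whose expression was induced by adding 500 ng/ml IFNγ.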

[2] = target: T2, IDO (SKOV-3 cells) (Homo sapiens, UniProt P14902); test: IDO cell-based assay (SKOV-3, IFNγ-induced), kynurenine production; settings: SKOV-3 ovary adenocarcinoma cells, IFNγ 500 ng/ml, 500 μM L-Trp, 48 h, kynurenine by absorbance at 490 nm
T2 construct: This assay utilised cancer cells which expressed either TDO or IDO; host or cells: SKOV-3 ovary adenocarcinoma cells, IFNγ-induced
Procedure, shortened: as §1

T2 sequence (P14902 whole entry): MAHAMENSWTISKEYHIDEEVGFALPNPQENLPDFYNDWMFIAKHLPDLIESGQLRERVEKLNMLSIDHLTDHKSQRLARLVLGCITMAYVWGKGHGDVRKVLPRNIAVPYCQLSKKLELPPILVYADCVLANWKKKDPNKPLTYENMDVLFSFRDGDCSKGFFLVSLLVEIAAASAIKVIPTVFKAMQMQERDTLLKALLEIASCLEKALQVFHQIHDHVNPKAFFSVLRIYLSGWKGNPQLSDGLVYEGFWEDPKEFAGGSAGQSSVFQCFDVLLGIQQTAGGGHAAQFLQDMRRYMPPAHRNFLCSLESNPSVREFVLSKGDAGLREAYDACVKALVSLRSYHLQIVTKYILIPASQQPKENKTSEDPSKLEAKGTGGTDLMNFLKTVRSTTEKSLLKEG
T1 sequence (P48775 whole entry): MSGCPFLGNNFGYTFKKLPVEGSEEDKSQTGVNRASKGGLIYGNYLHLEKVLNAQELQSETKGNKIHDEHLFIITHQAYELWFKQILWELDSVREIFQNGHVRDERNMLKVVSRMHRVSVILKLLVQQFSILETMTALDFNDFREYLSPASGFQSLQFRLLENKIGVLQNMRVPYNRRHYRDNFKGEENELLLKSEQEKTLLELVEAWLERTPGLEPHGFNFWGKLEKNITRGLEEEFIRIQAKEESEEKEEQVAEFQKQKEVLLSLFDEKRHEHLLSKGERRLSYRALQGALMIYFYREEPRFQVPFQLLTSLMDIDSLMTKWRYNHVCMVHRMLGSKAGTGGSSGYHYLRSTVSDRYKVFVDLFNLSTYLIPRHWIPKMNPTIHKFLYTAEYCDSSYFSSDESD

TDO cellular assay (A172) pIC50 [1] | IDO cellular assay (SKOV3) pIC50 [2] | SMILES
− (− = pIC50 <4.50) | ++ (++ = pIC50 5.00-<5.50) | COc1ccc2cc(C(=O)NC3(c4ccccc4)CC3)[nH]c2c1 [Compound 162]
− (− = pIC50 <4.50) | + (+ = pIC50 4.50-<5.00) | C[C@@H](NC(=O)c1cc2cc(Cl)cnc2[nH]1)c1ccccc1 [Compound 163]
− (− = pIC50 <4.50) | +++ (+++ = pIC50 ≥5.50) | O=C(NC1(c2ccccc2)CC1)c1cc2cc(Cl)cnc2[nH]1 [Compound 164]
− (− = pIC50 <4.50) | + (+ = pIC50 4.50-<5.00) | CC(NC(=O)c1cc2cc(Cl)cnc2[nH]1)c1cnn(C)c1 (centres unmarked) [Compound 165]
− (− = pIC50 <4.50) | + (+ = pIC50 4.50-<5.00) | COc1ccc2cc(C(=O)NC(C)c3cnn(C)c3)[nH]c2c1 (centres unmarked) [Compound 166]
− (− = pIC50 <4.50) | ++ (++ = pIC50 5.00-<5.50) | COc1ccc2cc(C(=O)NC3(c4cnn(C)c4)CC3)[nH]c2c1 [Compound 167]
+ (+ = pIC50 4.50-<5.00) | +++ (+++ = pIC50 ≥5.50) | Cn1cc(C2(NC(=O)c3cc4cc(C(F)(F)F)ccc4[nH]3)CC2)cn1 [Compound 168]
− (− = pIC50 <4.50) | ++ (++ = pIC50 5.00-<5.50) | COc1ccc2cc(C(=O)NC3(c4ccccc4)COC3)[nH]c2c1 [Compound 169]
+ (+ = pIC50 4.50-<5.00) | +++ (+++ = pIC50 ≥5.50) | O=C(NC1(c2ccccc2)COC1)c1cc2cc(C(F)(F)F)ccc2[nH]1 [Compound 170]
− (− = pIC50 <4.50) | +++ (+++ = pIC50 ≥5.50) | O=C(NC1(c2ccccc2)COC1)c1cc2cc(Cl)cnc2[nH]1 [Compound 171]
− (− = pIC50 <4.50) | + (+ = pIC50 4.50-<5.00) | O=C(NC1(c2ccccc2)CC1)c1cc2ccc(O)cc2[nH]1 [Compound 172]
− (− = pIC50 <4.50) | +++ (+++ = pIC50 ≥5.50) | CC(NC(=O)c1cc2cc(Cl)ccc2[nH]1)c1ccn(-c2ccccc2)n1 (centres unmarked) [Compound 173]
++ (++ = pIC50 5.00-<5.50) | +++ (+++ = pIC50 ≥5.50) | C[C@@H](NC(=O)c1cc2cc(Cl)cc(F)c2[nH]1)c1ccccc1 [Compound 174]
− (− = pIC50 <4.50) | +++ (+++ = pIC50 ≥5.50) | COc1ccc2[nH]c(C(=O)N[C@H](C)c3ccccc3)cc2c1 [Compound 175]
− (− = pIC50 <4.50) | +++ (+++ = pIC50 ≥5.50) | COc1ccc2[nH]c(C(=O)NC3(c4cnn(C)c4)CC3)cc2c1 [Compound 176]
− (− = pIC50 <4.50) | ++ (++ = pIC50 5.00-<5.50) | Cn1cc(C2(NC(=O)c3cc4cc(Cl)cnc4[nH]3)CC2)cn1 [Compound 177]
− (− = pIC50 <4.50) | +++ (+++ = pIC50 ≥5.50) | COc1ccc2[nH]c(C(=O)NC3(c4ccccc4)COC3)cc2c1 [Compound 178]
− (− = pIC50 <4.50) | ++ (++ = pIC50 5.00-<5.50) | O=C(NC1(c2ncccn2)CC1)c1cc2cc(Cl)ccc2[nH]1 [Compound 179]
− (− = pIC50 <4.50) | + (+ = pIC50 4.50-<5.00) | C[C@@H](NC(=O)c1cc2ccc(C(F)F)cc2[nH]1)c1ccccc1 [Compound 180]
− (− = pIC50 <4.50) | + (+ = pIC50 4.50-<5.00) | C[C@@H](NC(=O)c1cc2cc(O)ccc2[nH]1)c1ccccc1 [Compound 181]
− (− = pIC50 <4.50) | +++ (+++ = pIC50 ≥5.50) | COc1ccc2[nH]c(C(=O)NC3(c4ccccc4)CC3)cc2c1 [Compound 182]
+ (+ = pIC50 4.50-<5.00) | +++ (+++ = pIC50 ≥5.50) | C[C@@H](NC(=O)c1cc2c(F)c(Cl)ccc2[nH]1)c1ccccc1 [Compound 183]
− (− = pIC50 <4.50) | ++ (++ = pIC50 5.00-<5.50) | Cc1nnc(C(C)NC(=O)c2cc3cc(Cl)ccc3[nH]2)o1 (centres unmarked) [Compound 184]
+ (+ = pIC50 4.50-<5.00) | + (+ = pIC50 4.50-<5.00) | C[C@@H](NC(=O)c1cc2ccc(O)cc2[nH]1)c1ccccc1 [Compound 185]
− (− = pIC50 <4.50) | +++ (+++ = pIC50 ≥5.50) | COc1ccc2[nH]c(C(=O)NC(C)c3cnn(C)c3)cc2c1 (centres unmarked) [Compound 186]

TDO cellular assay (A172) pIC50 [1] | IDO cellular assay (SKOV3) pIC50 [2] | SMILES
− (− = pIC50 <4.50) | + (+ = pIC50 4.50-<5.00) | O=C(NC1(c2ccccc2)CC1)c1cc2cc(O)ccc2[nH]1 [Compound 187]
+ (+ = pIC50 4.50-<5.00) | +++ (+++ = pIC50 ≥5.50) | O=C(NC1(c2ccccc2)CC1)c1cc2cc(Cl)cc(F)c2[nH]1 [Compound 188]
− (− = pIC50 <4.50) | ++ (++ = pIC50 5.00-<5.50) | O=C(NC1(c2ccccc2)CC1)c1cc2ccc(C(F)F)cc2[nH]1 [Compound 189]
− (− = pIC50 <4.50) | + (+ = pIC50 4.50-<5.00) | CS(=O)(=O)Nc1ccc2cc(C(=O)NC3(c4ccccc4)CC3)[nH]c2c1 [Compound 190]
− (− = pIC50 <4.50) | +++ (+++ = pIC50 ≥5.50) | Cn1cc(C2(NC(=O)c3cc4c(F)c(Cl)ccc4[nH]3)CC2)cn1 [Compound 191]
− (− = pIC50 <4.50) | + (+ = pIC50 4.50-<5.00) | CC(NC(=O)c1cc2ccc(C(F)F)cc2[nH]1)c1cnn(C)c1 (centres unmarked) [Compound 192]
− (− = pIC50 <4.50) | +++ (+++ = pIC50 ≥5.50) | CC(NC(=O)c1cc2c(F)c(Cl)ccc2[nH]1)c1cnn(C)c1 (centres unmarked) [Compound 193]
− (− = pIC50 <4.50) | +++ (+++ = pIC50 ≥5.50) | O=C(NC1(c2ccccc2)CC1)c1cc2c(F)c(Cl)ccc2[nH]1 [Compound 194]
− (− = pIC50 <4.50) | ++ (++ = pIC50 5.00-<5.50) | COCCn1cc(C(C)NC(=O)c2cc3cc(Cl)ccc3[nH]2)cn1 (centres unmarked) [Compound 195]
− (− = pIC50 <4.50) | + (+ = pIC50 4.50-<5.00) | Cn1cc(C2(NC(=O)c3cc4ccc(O)cc4[nH]3)CC2)cn1 [Compound 196]
− (− = pIC50 <4.50) | + (+ = pIC50 4.50-<5.00) | COCCn1cc(C(C)NC(=O)c2cc3cc(C#N)ccc3[nH]2)cn1 (centres unmarked) [Compound 197]
− (− = pIC50 <4.50) | +++ (+++ = pIC50 ≥5.50) | Cc1c(C2(NC(=O)c3cc4cc(Cl)ccc4[nH]3)CC2)cnn1C [Compound 198]
− (− = pIC50 <4.50) | +++ (+++ = pIC50 ≥5.50) | Cc1noc(C(C)NC(=O)c2cc3cc(Cl)ccc3[nH]2)n1 (centres unmarked) [Compound 199]
− (− = pIC50 <4.50) | +++ (+++ = pIC50 ≥5.50) | Cc1nc(C(C)NC(=O)c2cc3cc(Cl)ccc3[nH]2)co1 (centres unmarked) [Compound 200]
− (− = pIC50 <4.50) | + (+ = pIC50 4.50-<5.00) | CC(NC(=O)c1cc2cc(Cl)ccc2[nH]1)c1ccn(C)n1 (centres unmarked) [Compound 201]
− (− = pIC50 <4.50) | +++ (+++ = pIC50 ≥5.50) | CC(NC(=O)c1cc2cc(Cl)cc(F)c2[nH]1)c1cnn(C)c1 (centres unmarked) [Compound 202]
+ (+ = pIC50 4.50-<5.00) | ++ (++ = pIC50 5.00-<5.50) | CC(NC(=O)c1cc2cc(Cl)c(F)cc2[nH]1)c1cnn(C)c1 (centres unmarked) [Compound 203]
− (− = pIC50 <4.50) | +++ (+++ = pIC50 ≥5.50) | Cn1cc(C2(NC(=O)c3cc4cc(Cl)c(F)cc4[nH]3)CC2)cn1 [Compound 204]
− (− = pIC50 <4.50) | +++ (+++ = pIC50 ≥5.50) | Cn1cc(C2(NC(=O)c3cc4cc(Cl)cc(F)c4[nH]3)CC2)cn1 [Compound 205]
− (− = pIC50 <4.50) | + (+ = pIC50 4.50-<5.00) | Cn1cc(C2(NC(=O)c3cc4ccc(C(F)F)cc4[nH]3)CC2)cn1 [Compound 206]
+ (+ = pIC50 4.50-<5.00) | +++ (+++ = pIC50 ≥5.50) | COc1ccc(-n2cc(C(C)NC(=O)c3cc4cc(Cl)ccc4[nH]3)cn2)cc1OC (centres unmarked) [Compound 207]
+ (+ = pIC50 4.50-<5.00) | +++ (+++ = pIC50 ≥5.50) | C[C@@H](NC(=O)c1cc2cc(Cl)c(F)cc2[nH]1)c1ccccc1 [Compound 208]
++ (++ = pIC50 5.00-<5.50) | +++ (+++ = pIC50 ≥5.50) | O=C(NC1(c2ccccc2)CC1)c1cc2cc(Cl)c(F)cc2[nH]1 [Compound 209]
+ (+ = pIC50 4.50-<5.00) | +++ (+++ = pIC50 ≥5.50) | O=C(NC1(c2ccccc2)COC1)c1cc2cc(Cl)c(F)cc2[nH]1 [Compound 210]
